Series [1] deals with phospho-tau (AT8) in ReNCell VM cells carrying the APPSL mutation. The series can be described thus: High-content screen of phospho-tau (AT8) staining in 3D cultured FAD neural stem cells. In kind it is cell-based, human. To be noted: for inhibition of pTau / tau hyperphosphorylation: primary screen of 2,640 compounds, compound added from the beginning of culture, whole-well AT8 images. An excerpt:
FIG. 1. High-content screening. FAD-transfected neural stem cells were 3D cultured in matrigel and treated with each compound. Cells were stained with phospho-tau antibody (AT8). Images covering the whole well were taken and quantified as the readout.
A 3D human neural culture model of AD was developed by culturing ReNCell VM cells carrying the APPSL mutation in a thin layer (50˜100 μm thick) of Matrigel. This method was then miniaturized to 96, 384, or other high content well plate formats (FIG. 1) to provide a faithful model for testing the effect of compounds on AD. However, the high-throughput screening is limited by its readout of microscopy images, which cannot be analyzed manually in large quantity.
To enable high-throughput in vitro screening, an image-processing program was developed, based on NeuriteIQ software^17-23 (FIG. 2A), to automatically quantify tau phosphorylation from images of cultured cells. The program processes images from th e nucleus and neurite channels separately. In the nucleus channel, nuclei are detected and segmented by local maximum detection and watershed method. In the neurite channel, phospho-tau stained cells are treated as two-dimensional curvilinear structures and processed based on the local Hessian matrix^24,25, which allows the detection of center points and local directions of neurites in a field. The program reliably quantified the number of neurons with hyper-phosphorylated tau (FIG. 2B). Thus, a high-content screening system for the identification of compounds targeting the tau pathology in AD was established.
Known drug and bioactive compounds (2,640 compounds) were selected for the initial screen from the Sigma-Aldrich LOPAC (1280), Tocriscreen Total Library (1120), and a manual selection of 240 Kinase Inhibitors. […] A few of the 38 compounds have been previously reported to inhibit tau phosphorylation in AD animal models (e.g., baicalein^26 and tretinoin^27), further validating the credibility of the screen. Most, however, are novel AD candidates.

In series [2] the test system is pTau in AD-in-a-dish model. In words: Validation of SMART-predicted compounds in the reformatted high content AD-in-a-dish model. Details: species or system human. The settings on record: cell-based validation of 26 purchased SMART predictions. The source says:
Twenty-two of the 38 aforementioned screening hits had LINCS data covering the perturbation profiles for at least 4 cell lines. From these 22 hits, 2 were eliminated because no known drug candidates ranked high enough based on transcriptomic similarities to these two primary hits; and 3 others were removed upon inspection of the compound properties of the predictions they made, i.e., the predicted drugs may be toxic or unfit for systematic use. Thus, the 17 primary hits shown in Table 1 were used to initiate a pilot run using the SMART framework. The cMAP algorithm^7 was used to rank all compounds in the LINCSCloud, based on the similarity of transcriptomic profiles to each of the 17 primary hits. If any compound was determined by cMAP algorithm to have a similarity score larger than 90 to at least one of the primary hits, it was identified as a hit candidate. After filtering based on pharmacology features, 85 candidates predicted by 17 primary hits (Table 1) remained; 26 of these 85 compounds were purchased for validation after analysis for pharmacology and medical practice features.

The test system of series [3] is 3D AD model (#A5). The series can be described thus: RNA-seq canonical pathway analysis of 3D AD cultures treated with anti-Aβ drugs. In kind it is cell-based, human. To be noted: anti-Aβ drug treatment versus DMSO. The source says:
FIG. 15. […] Pearson correlations of global gene expression profile among 2D undifferentiated control ReN cells, 3D control (G2# B2on), AD # A5 (# A5, moderate Aβ42/40 ratio ˜0.2), AD # D4 (# D4, high Aβ42/40 ratio, ˜1.4), and AD # H10 (# H10, extra high Aβ42/40 ratio, ˜1.7). Units are log CPM. b. Volcano plots show −log10(FDR) vs log FC distribution for G2# B2 (control) vs AD # A5 (AD), AD # A5 DMSO vs AD # A5 BSI (BACE inhibitor, Ly2886721), and AD # A5 DMSO vs AD # A5 GSM (gamma secretase modulator, SGSM15606) transcriptomic signatures. […] Canonical pathway analysis between G2# B2 and AD # A5 (Ingenuity pathway analysis, Qiagen). d. Analysis of common canonical pathways. The pathway analysis among G2# B2 vs AD # A5, AD # A5 DMSO vs AD # A5 BSI, and AD # A5 DMSO vs AD # A5 GSM. Activation z-scores indicate that majority of decreased pathways in AD # A5 are restored by BSI and/or GSM treatments. e. […]
To examine the multiple single-clonal AD models, unbiased whole genome RNA-seq analyses were performed to compare gene expression profiles among the clonal AD models with different Aβ42/40 ratios, as compared to control 3D cultures and undifferentiated 2D control cells (FIG. 15a-d). […] Differential gene expression profile of 3D AD cultures were analyzed after treating anti-Aβ drugs (BACE1 inhibitor, Ly2886721; Gamma-secretase modulator (GSM), GSM15606) (FIG. 15b). […]

Series [4] deals with tau phosphorylation. The settings on record: previously reported; cited from earlier work.
For series [5], the system named is 3D AD cell model transcriptome. In words: Whole genome RNAseq after compound treatment versus control. To be noted: for immune and inflammatory related pathways (5 of 6 connected to 12 down-regulated genes): after treatment versus control; for down-regulated genes in PPI subnetwork, shared by both treatments / up-regulated genes in PPI subnetwork, shared by both treatments: |log FC|>1.5 versus control. In kind it is cell-based, human. An excerpt: PPI information was extracted from STRING database version 10.5 with the cutoff for confidence score at 0.4.
Given ebselen and leflunomide in FIG. 17, an unbiased whole genome RNAseq analysis was used to obtain transcriptomic profiles after the treatment of each compound and compare them separately to control conditions. For both treatments, a subset of genes and pathways show significant change (|log FC|>1.5) in the same direction over control condition. […] These 22 genes have 102 PPI pairs among them, and there are 7 genes directly connected to APP (coding Aβ) or MAPT (coding Tau).
It's worth noting that the enrichment of immune and inflammatory related pathway changes is consistent with the characteristics of the 3D cell model, as this system contains astrocytes, which is one of the brain innate immune cells. […] Also, neuroinflammatory pathways are highly unregulated in high Abeta42/40 lines (D4 and H10) as compared to A5 (similar to GA2) (data not shown).

Series [6] deals with p-tau (pSer396/Ser404). In words: Quantitative immunofluorescence staining in 3D AD models with high Aβ42/40 ratios. To be noted: 5 μM for 3 weeks. In kind it is cell-based, human. An excerpt: FIG. 17. Validation of primary hit candidates. Primary hit candidates were confirmed using Western blot analysis (a) and quantitative immunofluorescence staining in 3D AD models with high Aβ42/40 ratios (# HReN and # A4H1) (b). PHF1 pSer396/Ser404 tau antibody was used to detect changes in phospho tau in 3D AD # HReN cells treated with DMSO vehicle, ebselen, or leflunomide.
In addition to MSD Mesoscale ELISA shown in FIG. 16, quantitative Western blot and immunofluorescence analysis were used to validate candidate drugs. […] Ebselen and leflunomide are compounds screened from original HCS screening of […] biologically active/FDA-approved drug library. […] Moreover, quantitative immunofluorescence staining was used to analyze p-tau changes after treating these compounds.

Each structure is given as a SMILES string.

With `CCC(C)[C@H]1O[C@]2(CC[C@@H]1C)C[C@@H]1C[C@@H](C/C=C(\C)[C@@H](O[C@H]3C[C@H](OC)[C@@H](O[C@H]4C[C@H](OC)[C@@H](O)[C@H](C)O4)[C@H](C)O3)[C@@H](C)/C=C/C=C3\CO[C@@H]4[C@H](O)C(C)=C[C@@H](C(=O)O1)[C@]34O)O2` (some centres unmarked) [ivermectin], the “inhibition of pTau / tau hyperphosphorylation” value in series [1] is on record as “almost completely inhibited”; in series [1] (listed as Ivermectin), “most significant phenotype”.

Regarding `C1CCC(C(CC2CCCCN2)C2CCCCC2)CC1.O=C(O)/C=C\C(=O)O` (centres unmarked) [Perhexiline, perhexiline maleate], the “inhibition of pTau” value in series [2] is recorded as “successful predictions”.

Take `NC1=N[C@@]2(c3cc(NC(=O)c4ccc(F)cn4)ccc3F)COC[C@H]2CS1` [Ly2886721]: the “enriched canonical pathways of the 3D AD model” value in series [3] is reported as “significantly altered”.

Consider `N=C(N)c1ccc(OCCCCCOc2ccc(C(=N)N)cc2)cc1` [pentamidine, pentamidine isethionate], for which, in series [1], the “inhibition of pTau / tau hyperphosphorylation” value is given as “almost completely inhibited”.

Consider `CC1=C(/C=C/C(C)=C/C=C/C(C)=C/C(=O)O)C(C)(C)CCC1` [retinoic acid], for which the “tau phosphorylation in AD animal models” value in series [4] is listed as “inhibit”.

Take `O=c1c2ccccc2[se]n1-c1ccccc1` [ebselen]: in series [5], the “immune and inflammatory related pathways (5 of 6 connected to 12 down-regulated genes)” value is “significantly down-regulated”; the “down-regulated genes in PPI subnetwork, shared by both treatments” value worked out at 15 genes; the “up-regulated genes in PPI subnetwork, shared by both treatments” value is 7 genes.

As to `CC[N+](CC)(CC)CCOc1ccc(/C=C/c2ccccc2)cc1` [MG624, mg 624], the “tau phosphorylation, late addition” value is listed as “significantly reduced” in series [1] (compound added after week 2, when tau phosphorylation should have already developed); “significantly reduced” in series [1] (compound added after week 4, cells fixed and stained at week 6). In series [1], the “inhibition of pTau / tau hyperphosphorylation” value is “almost completely inhibited”.

Turning to `COc1nc(-c2cc(C)c(NC(C)c3ccc(F)cc3)nn2)ccc1-n1cnc(C)c1` (centres unmarked) [GSM15606], in series [3], the “enriched canonical pathways of the 3D AD model” value was “significantly altered”.

With `O=c1cc(-c2ccccc2)oc2cc(O)c(O)c(O)c12` [baicalein], the “tau phosphorylation in AD animal models” value in series [4] is “inhibit”.

With `Cc1oncc1C(=O)Nc1ccc(C(F)(F)F)cc1` [leflunomide], in series [6], the “cellular viability and neurite networks” value is “without affecting”; the “p-tau (pSer396/Ser404) accumulation” value was “robustly decreased”. Also, in series [5], the “immune and inflammatory related pathways (5 of 6 connected to 12 down-regulated genes)” value is reported as “significantly down-regulated”; the “down-regulated genes in PPI subnetwork, shared by both treatments” value was 15 genes; the “up-regulated genes in PPI subnetwork, shared by both treatments” value turned out to be 7 genes.

On to `Oc1c(Cl)cc(Cl)c2cccnc12` [chloroxine], for which the “inhibition of pTau” value in series [2] is listed as “validated hits”.

(Values after patent US20200121666A1, “TAU PHOSPHORYLATION INHIBITORS AND METHODS FOR TREATING OR PREVENTING ALZHEIMER'S DISEASE” (THE METHODIST HOSPITAL SYSTEM, priority 2017, published 2020).)
